Experiments:
[1] = DVS (dynamic vapor sorption) hygroscopicity testing; assay type: physicochemical
Source text: According to the description of hygroscopicity characteristics and the definition of hygroscopic weight gain in "General Rule 9103, Guidelines for Hygroscopicity Trials for Pharmaceuticals" in the Chinese Pharmacopoeia, Volume IV, 2015 Edition: • deliquescent: sufficient water is absorbed to form a liquid; • extremely hygroscopic: the hygroscopic weight gain is not less than 15%; • hygroscopic: the hygroscopic weight gain is less than 15% but not less than 2%; • slightly hygroscopic: the hygroscopic weight gain is less than 2% but not less than 0.2%; • nonhygroscopic or practically nonhygroscopic: the hygroscopic weight gain is less than 0.2%.
DVS refers to dynamic vapor sorption: The analysis was performed using SMS DVS Advantage; at 25 °C, the humidity was changed as follows: 50%-95%-0%-95%-50%, in steps of 10% (5% for the last step) (specific humidity ranges are shown in corresponding patterns, and those listed here were used in most cases); the criterion was dm/dt being not greater than 0.002%.

[2] = Influencing factor stability study; assay type: physicochemical
Protocol: Samples of the crystal forms D, E, and H were spread in open containers and left to stand under light exposure (4500 Lux), high temperature (40 °C and 60 °C), and high humidity (RH 75% and RH 92.5%) conditions for 1 month to investigate their stability.

[3] = Long-term/accelerated stability; assay type: physicochemical
Protocol: Samples of the crystal forms D, E, and H were left to stand under 25 °C/60% RH and 40 °C/75% RH conditions to investigate their stability: Table 30.

[4] = tested on: EGFR wild-type Ba/F3 cells; experiment: Ba/F3 cell proliferation assay (Celltiter-Glo); assay type: cell-based; settings: 72 h incubation
Protocol: (§1) EGFR wild-type Ba/F3 cells (Cobioer, Cat. No. CBP73110) in the logarithmic growth phase were seeded into a 96-well plate at 2.5 × 10^3 cells/100 µL in a growth medium, and HER2 wild-type Ba/F3 cells (Cobioer, Cat. No. CBP73110) or HER2 A775_G776insYVMA mutant Ba/F3 cells (Cobioer, Cat. No. CBP73184) in the logarithmic growth phase were seeded into a 96-well plate at 5 × 10^3 cells/100 µL in a growth medium. The plates were placed in a cell incubator at 37 °C overnight. The next day, the compound diluted in a 3-fold gradient with a medium was added to the plates at 100 µL/well. All treatments were performed in triplicate. The plates were incubated in the cell incubator at 37 °C for another 72 h. Celltiter-Glo Luminescent cell viability assay was performed.
(§2) The cell proliferation rate corresponding to each well was calculated according to the following formula: proliferation% = (test compound well G3 - G0 average value)/(DMSO control well G3 average value - G0 average value) × 100. According to the proliferation rate and concentration corresponding to each gradient concentration well, a gradient curve for cell proliferation was fitted using Prism Graphpad software, and the GI50 (GI50 is defined as the compound concentration corresponding to a cell proliferation inhibition rate of 50%) of the compound was calculated.

[5] = tested on: HER2 A775_G776insYVMA mutant Ba/F3 cells; experiment: Ba/F3 cell proliferation assay (Celltiter-Glo); assay type: cell-based; settings: 72 h incubation
Protocol: as §1, §2

[6] = tested on: HER2 wild-type Ba/F3 cells; experiment: Ba/F3 cell proliferation assay (Celltiter-Glo); assay type: cell-based; settings: 72 h incubation
Protocol: as §1, §2

Question: Which results are given for C=CC(=O)N1[C@@H]2CC[C@H]1C[C@@H](Oc1ccc3ncnc(Nc4ccc(Oc5ccn6ncnc6c5)c(C)c4F)c3c1)C2 [Crystal form H, 1-(endo-3-((4-((4-([1,2,4]Triazolo[1,5-a]pyridin-7-yloxy)-2-fluoro-3-methylphenyl)amino)quinazolin-6-yl)oxy)-8-azabicyclo[3.2.1]octan-8-yl)prop-2-en-1-one]?
Answer: hygroscopic weight gain ([1]; accelerated experimental conditions, 70% RH): about 0.12%; hygroscopic weight gain ([1]; extreme conditions, 90% RH): about 0.22%; hygroscopic weight gain ([1]; normal storage conditions, 25 °C and 60% RH): about 0.09%; Color and appearance ([2]; 40 °C, 1 month): White powder; Crystal form ([2]; 40 °C, 1 month): No change; Purity (%) ([2]; 40 °C, 1 month): 99.4%; Color and appearance ([2]; 40 °C, 7 days): White powder; Crystal form ([2]; 40 °C, 7 days): No change; Color and appearance ([2]; 40 °C, 14 days): White powder; Crystal form ([2]; 40 °C, 14 days): No change; Color and appearance ([2]; 60 °C, 1 month): White powder; Crystal form ([2]; 60 °C, 1 month): No change; Purity (%) ([2]; 60 °C, 1 month): 99.4%; Color and appearance ([2]; 60 °C, 7 days): White powder; Crystal form ([2]; 60 °C, 7 days): No change; Color and appearance ([2]; 60 °C, 14 days): White powder; Crystal form ([2]; 60 °C, 14 days): No change; Color and appearance ([2]; 75% RH, 1 month): White powder; Crystal form ([2]; 75% RH, 1 month): No change; Color and appearance ([2]; 75% RH, 7 days): White powder; Crystal form ([2]; 75% RH, 7 days): No change; Color and appearance ([2]; 75% RH, 14 days): White powder; Crystal form ([2]; 75% RH, 14 days): No change; Color and appearance ([2]; 92.5% RH, 1 month): White powder; Crystal form ([2]; 92.5% RH, 1 month): No change; Color and appearance ([2]; 92.5% RH, 7 days): White powder; Crystal form ([2]; 92.5% RH, 7 days): No change; Color and appearance ([2]; 92.5% RH, 14 days): White powder; Crystal form ([2]; 92.5% RH, 14 days): No change; Color and appearance ([2]; 4500 Lux, 1 month): White powder; Crystal form ([2]; 4500 Lux, 1 month): No change; Color and appearance ([2]; 4500 Lux, 7 days): White powder; Crystal form ([2]; 4500 Lux, 7 days): No change; Color and appearance ([2]; 4500 Lux, 14 days): White powder; Crystal form ([2]; 4500 Lux, 14 days): No change; Color and appearance ([2]; Initial, 0): White powder; Crystal form ([2]; Initial, 0): Crystal form H; Purity (%) ([2]; Initial, 0): 99.8%; physical and chemical stability ([2]; light exposure (4500 Lux), high temperature (40 °C and 60 °C), high humidity (RH 75% and RH 92.5%), 30 days): Conclusion: Standing under light exposure (4500 Lux), high temperature (40 °C and 60 °C), and high humidity (RH 75% and RH 92.5%) conditions for 30 days, the crystal form H exhibited good physical and chemical stability.; Color and appearance ([3]; 25 °C/60% RH, 1 month): White powder; Crystal form ([3]; 25 °C/60% RH, 1 month): No change; Color and appearance ([3]; 25 °C/60% RH, 2 months): White powder; Crystal form ([3]; 25 °C/60% RH, 2 months): No change; Color and appearance ([3]; 25 °C/60% RH, 3 months): White powder; Crystal form ([3]; 25 °C/60% RH, 3 months): No change; Color and appearance ([3]; 25 °C/60% RH, 6 months): White powder; Crystal form ([3]; 25 °C/60% RH, 6 months): No change; Color and appearance ([3]; 25 °C/60% RH, 14 days): White powder; Crystal form ([3]; 25 °C/60% RH, 14 days): No change; Color and appearance ([3]; 40 °C/75% RH, 1 month): White powder; Crystal form ([3]; 40 °C/75% RH, 1 month): No change; Color and appearance ([3]; 40 °C/75% RH, 2 months): White powder; Crystal form ([3]; 40 °C/75% RH, 2 months): No change; Color and appearance ([3]; 40 °C/75% RH, 3 months): White powder; Crystal form ([3]; 40 °C/75% RH, 3 months): No change; Color and appearance ([3]; 40 °C/75% RH, 6 months): White powder; Crystal form ([3]; 40 °C/75% RH, 6 months): No change; Color and appearance ([3]; 40 °C/75% RH, 14 days): White powder; Crystal form ([3]; 40 °C/75% RH, 14 days): No change; Color and appearance ([3]; Initial, 0): White powder; Crystal form ([3]; Initial, 0): Crystal form H; Purity (%) ([3]; Initial, 0): 99.8%; physical and chemical stability ([3]; long-term/accelerated conditions): Conclusion: Under long-term/accelerated conditions, the crystal form H exhibited good physical and chemical stability.

Question: With C=CC(=O)N1[C@@H]2CC[C@H]1C[C@@H](Oc1ccc3ncnc(Nc4ccc(Oc5ccn6ncnc6c5)c(C)c4F)c3c1)C2 [Example 1, 1-(endo-3-((4-((4-([1,2,4]Triazolo[1,5-a]pyridin-7-yloxy)-2-fluoro-3-methylphenyl)amino)quinazolin-6-yl)oxy)-8-azabicyclo[3.2.1]octan-8-yl)prop-2-en-1-one] as the compound, how does the “EGFR WT/ BaF3 Imax %” value [4] read?
Answer: The value was 100%.

Question: And the “HER2 A775_G776 ins YVMA/ BaF3 Imax %” value [5]?
Answer: The value was 100%.

Question: What about the “HER2 WT/ BaF3 Imax %” value [6] of the same compound?
Answer: Its value is 100%.

Question: With Cc1cc(Nc2ncnc3ccc(NC4=NC(C)(C)CO4)cc23)ccc1Oc1ccn2ncnc2c1 [Tucatinib, reference compound] as the compound, how does the “HER2 A775_G776 ins YVMA/ BaF3 Imax %” value [5] read?
Answer: Its value is 100%.

From patent EP4786474A1, “CRYSTALLINE FORM OF QUINAZOLINE DERIVATIVE AND PREPARATION METHOD THEREFOR” (Jiangsu Hengrui Pharmaceuticals Co., Ltd., priority 2023, dated 2025)
